From article PMC1769465, “Toxicity Assays in Nanodrops Combining Bioassay and Morphometric Endpoints” (PLoS ONE, 2007)
Read-outs that look alike come from different tables or passages of the source.

Columns and labels:
[1] = test system: Drosophila melanogaster hsp22 promoter; format: cell-based; conditions: for IC50: read-out: IC50 derived from KS curves, EGFP expression
[2] = test system: HepG2 A10/hsp22 stress inducible clone; experiment: cells; format: cell-based, human
[3] = test system: HepG2 cells; conditions: cited from earlier work
[4] = test system: HepG2 A10/hsp22 stress inducible clone; conditions: for IC50: read-out: IC50 (Cell Number)
[5] = test system: hsp22 promoter; conditions: cited from earlier work
[6] = test system: HeLa cells; conditions: cited from earlier work
[7] = test system: HepG2 cells; set-up: method as in PMID 16111842; conditions: read-out: IC50, neutral red quantification, cited from earlier work
[8] = test system: HepG2 cells; set-up: method as in PMID 16111842; conditions: read-out: IC50, MTT assay, cited from earlier work
[9] = test system: EGFP expressing stress inducible clones; set-up: method as in PMID 16492392; conditions: 6 h toxic induction combined with a 12–18 h recovery period; read-out: IC50 in 96 well format assays; cited from earlier work
[10] = test system: HepG2 A10/hsp22 stress inducible clone; experiment: cells; conditions: Homo sapiens, HepG2, read-out: IC50 (Cell Number)
[11] = calculated on Kolmogorov-Smirnov score curves
[12] = […], linear regression, two independent experiments
[13] = same stress inducible clones, 96-well format

## Sodium arsenate
[1]
  dose at which EGFP Grey Level reached the KS score 0.2 threshold: 10 µM
  dose at which EGFP expression could be detected: 20 µM
  dose at which hsp22 promoter activation (EGFP) disappeared: 100 µM
  IC50: 19 µM
[2]
  Cell Area after toxic insult (cell shrinkage): around 400 µm^2
  IC50 derived from KS curves, Roundness: no significant Roundness effect
  IC50 derived from KS curves, Shape Index: 32 µM
  IC50 for Shape Index: 24 µM
  concentrations causing a decrease in Shape Index: above 20 µM
  dose after which Shape Index distribution was significantly different from control (KS): > 50 µM
  dose at which Cell Area reached the KS score 0.2 threshold: 5 µM
  dose at which increase in Cell Roundness occurred: 100 µM
[2]; read-out: IC50 derived from KS curves, Cell Area
  IC50: 19 µM
[2]; read-out: IC50 for Cell Area
  IC50: 29 µM
[2]; read-out: IC50 for Cell Roundness
  IC50: 59 µM
[3]
  IC50: 60 to 70 µM
  concentration that elicited mild (20–25%) cytotoxicity: 55 µM
  concentration that elicited minimal (≤5%) cytotoxicity: 15 µM
  concentration that elicited more severe (approximately 50%) cytotoxicity: 70 µM
[4]
  doses giving an obvious decrease in cell number: greater than 20 µM
  IC50: 85 µM
[5]
  induction windows: 10 to 100 µM

## [Cl][Cd][Cl] [CdCl2, Cadmium chloride]
[1]
  dose at which EGFP expression could be detected: 50 µM
  dose at which hsp22 promoter activation (EGFP) disappeared: 100 µM
  dose of maximum activation of hsp22 promoter (EGFP expression): around 50 µM
[1]; [11]
  IC50: 28 µM
[6]
  CC50: 50 µM
[2]; HepG2 A10 clone
  concentrations causing a decrease in Shape Index: above 20 µM
[2]; [12]
  IC50 for Shape Index: 32 µM
[2]; […], linear regression, two independent experiments, read-out: IC50 for Cell Area
  IC50: 29 µM
[2]; […], linear regression, two independent experiments, read-out: IC50 for Cell Roundness
  IC50: 52 µM
[2]; [11]
  IC50 derived from KS curves, Shape Index: 48 µM
[2]; calculated on Kolmogorov-Smirnov score curves, read-out: IC50 derived from KS curves, Cell Area
  IC50: 25 µM
[2]; calculated on Kolmogorov-Smirnov score curves, read-out: IC50 derived from KS curves, Roundness
  IC50: 60 µM
[2]; decrease from around 900 µm^2
  Cell Area after toxic insult (cell shrinkage): around 400 µm^2
[2]; late dose, particularly with cadmium
  dose at which increase in Cell Roundness occurred: 100 µM
[7]; HepG2, 5 h exposure
  IC50: 100 µM
[7]; HepG2, 8 h exposure
  IC50: 80 µM
[7]; HepG2, 24 h exposure
  IC50: 8 µM
[3]; HepG2, 24 h exposure
  concentration that elicited mild (20–25%) cytotoxicity: 40 µM
  concentration that elicited minimal (≤5%) cytotoxicity: 15 µM
  concentration that elicited more severe (approximately 50%) cytotoxicity: 60 µM
[3]; read-out: IC50 for cytotoxicity, HepG2, 24 h exposure
  IC50: 60 to 70 µM
[4]
  doses giving an obvious decrease in cell number: greater than 20 µM
[4]; [12]
  IC50: 83 µM
[5]; reported
  induction windows: 10 to 100 µM
[5]; [13]
  concentration over which promoter activity gradually decreased: over 60 µM
  peak expression of EGFP (concentration): around 50 µM
[8]; HepG2, 3 h exposure
  IC50: 500 µM
[8]; HepG2, 5 h exposure
  IC50: 100 µM
[8]; HepG2, 8 h exposure
  IC50: 40 µM
[8]; HepG2, 24 h exposure
  IC50: 15 µM
[9]
  IC50: 50 µM

## C[n+]1ccc(-c2cc[n+](C)cc2)cc1 [Paraquat]
[1]; HepG2 A10 clone, 0.5 µM to 1 mM
  EGFP expression with hsp22 promoter (in words): did not induce any significant EGFP expression
[10]
  IC50: 88 µM
[2]; Homo sapiens, HepG2, 6 h, […], linear regression, two independent experiments, read-out: IC50 for Cell Area
  IC50: 44 µM
[2]; [12]
  IC50 for Shape Index: 29 µM
[2]; compared with Arsenate and Cadmium
  Shape Index effect (in words): did not induce as significant a decrease of this index
[2]; compared with heavy metals
  Cell Roundness effect (in words): produced a less significant effect
[2]; decrease from around 900 µm^2
  Cell Area after toxic insult (cell shrinkage): 700 µm^2
[4]; human
  doses giving an obvious decrease in cell number: greater than 20 µM
